Experimental data taken from patent US20250213603A1, “PHARMACEUTICAL COMPOSITION FOR TREATING CANCER” (SAGA UNIVERSITY, priority 2021, published 2025).

Experiments:
[1] = test system: A549; assay: Proliferation inhibitory action on low folate receptor-expressing cells (MTT assay); assay type: cell-based, human; conditions: A549, 2.5-10 mM, 72 hours (FIG. 3)
Experimental: The proliferation inhibitory action on A549, a low folate receptor-expressing cell, was evaluated as follows.
A human non-small cell lung cancer cell line (A549) was used in this example. The FA-HP-β-CyD synthesized in Example 1 was used.
For cell proliferation, 2×10^4 cells of the […] were seeded with 100 μL DMEM medium (Sigma-Aldrich, USA) per well to a flatbottom 96-well plate (Greiner Labortechnik, Hamburg, Germany), and incubation for 72 hours was carried out with exposure to HP-β-CyD and FA-HP-β-CyD at different concentrations (0 mM (control: CT), 2.5 mM, 5 mM, 7.5 mM, and 10 mM). Evaluation was then carried out using a dimethyl-thiazole-diphenyl-tetrazolium (MTT) assay (Nacalai Tesque, Japan).

[2] = test system: K562; assay: Cell proliferation inhibitory action in the presence of folic acid (MTT assay); assay type: cell-based; conditions: K562, 5 mM, FA 2 mM, 2 hours (FIG. 4)
Experimental: (§1) The cell proliferation inhibitory action on leukemia cell lines in the presence of folic acid (FA) was evaluated as follows using the MTT assay.
(§2) Leukemia cell lines (K562 and BV173) were used in this example. The FA-HP-β-CyD synthesized in Example 1 was used.
(§3) 2×10^4 of each cell with 100 μL of medium was seeded per well to a flatbottom 96-well plate (Greiner Labortechnik, Hamburg, Germany), and incubation for 2 hours at 37° C. was carried out in combination with medium containing HP-β-CyD (5 mM) and FA-HP-β-CyD (5 mM) in the presence or absence of FA (2 mM). Evaluation was then carried out using a Cell Counting Kit-8 (Dojindo, Japan), which is a modified dimethyl-thiazole-diphenyl-tetrazolium (MTT) assay.
(§4) The evaluation here was carried out as follows, respectively, for the “CT” and “only FA” in FIG. 4. Thus, 2×10^4 of each cell with 100 μL of medium was seeded per well to a flatbottom 96-well plate and incubation was carried out for 2 hours at 37° C.; this was evaluated as “CT”. Incubation for 2 hours at 37° C. while exposed to only FA was evaluated as “only FA”.
(§5) Significant difference was established as follows. A two sample t-test was performed on the agents under investigation (FA-HP-β-CyD with FA, FA-HP-β-CyD without FA). A significant difference is established when p<0.05 in the comparison of the two samples.

[3] = test system: BV173; assay: as above; assay type: cell-based; conditions: BV173, 5 mM, FA 2 mM, 2 hours (FIG. 4)
Experimental: as §1, §2, §3, §4, §5

[4] = test system: K562-IMR; assay: Cell proliferation inhibition, modified MTT assay (Cell Counting Kit-8); assay type: cell-based; conditions: incubation for 72 hours, average±SD of 3 independent experiments
Experimental: (§6) The proliferation inhibitory action in leukemia cell lines was evaluated using a modified dimethyl-thiazole-diphenyl-tetrazolium (MTT) assay as follows.
(§7) The hepatocyte line and leukemia cell lines (K562, BV173, Ba/F3 p190, Ba/F3 p210, MYL-R, K562-IMR, and KBM5-STI) were used in this example. The FA-HP-β-CyD synthesized in Example 1 was used.
(§8) The cell viability was evaluated using the trypan blue dye exclusion method. Cell proliferation was evaluated using a Cell Counting Kit-8 (Dojindo, Japan), which is an MTT assay. 2×10^4 of each cell was seeded with 100 μL RPMI1640 medium (Sigma-Aldrich, USA) per well to a flatbottom 96-well plate (Greiner Labortechnik, Hamburg, Germany), and incubation for 72 hours was carried out with exposure to HP-β-CyD and FA-HP-β-CyD at different concentrations (0 mM (control: CT), 0.05 mM, 0.1 mM, 0.25 mM, 0.5 mM, and 1 mM).

[5] = test system: Ba/F3 P190; assay: as above; assay type: cell-based
Experimental: as §6, §7, §8

[6] = test system: KBM5-STI; assay: as above; assay type: cell-based; conditions: incubation for 72 hours, average±SD of 3 independent experiments
Experimental: as §6, §7, §8

[7] = test system: MYL-R; assay: as above; assay type: cell-based; conditions: incubation for 72 hours, average±SD of 3 independent experiments
Experimental: as §6, §7, §8

[8] = test system: Ba/F3 P210; assay: as above; assay type: cell-based; conditions: Ba/F3 P210, incubation for 72 hours, average±SD of 3 independent experiments
Experimental: as §6, §7, §8

[9] = test system: K562; assay: as above; assay type: cell-based
Experimental: as §6, §7, §8

[10] = test system: BV173; assay: as above; assay type: cell-based
Experimental: as §6, §7, §8

[11] = test system: hepatocyte; assay: as above; assay type: cell-based; conditions: hepatocyte line, incubation for 72 hours, average±SD of 3 independent experiments
Experimental: as §6, §7, §8

[12] = test system: K562; assay: Effect of autophagy inhibition on the cell proliferation inhibitory effect; assay type: cell-based; conditions: 5 mM FA-HP-β-CyD or 15 mM HP-β-CyD, chloroquine, bafilomycin A1 or LY294002 (FIG. 8)
Experimental: (§9) The effect of autophagy inhibition on the cell proliferation inhibitory effect was evaluated as follows.
as §2
(§10) 2×10^5 of each cell with 100 μL RPMI1640 medium (Sigma-Aldrich, USA) was seeded per well to a flatbottom 96-well plate (Greiner Labortechnik, Hamburg, Germany), and treatment was carried out for 2 hours at 37° C. with 5 mM FA-HP-β-CyD and 15 mM HP-β-CyD. Pretreatment was then carried out for 24 hours with the autophagy inhibitors chloroquine (20 μM) (FUJIFILM Wako Pure Chemical Corporation), bafilomycin A1 (1 nM) (Funakoshi), or LY294002 (50 μM) (FUJIFILM Wako Pure Chemical Corporation). Cell proliferation was then evaluated using a Cell Counting Kit-8 (Dojindo, Japan), which is a modified dimethyl-thiazole-diphenyl-tetrazolium (MTT) assay.
(§11) Here, the “CT” in FIG. 8 was evaluated as follows. Thus, 2×10^5 of each cell with 100 μL RPMI1640 medium was seeded per well to a flatbottom 96-well plate and culture was carried out for 2 hours+24 hours as in the exposure groups, but without exposure to the agent or autophagy inhibitor, and this was used as the CT. This CT was compared with the exposure groups.
(§12) Significant difference was determined as follows. That is, the data were analyzed using a two-sided Student's t-test without a comparison table. A value of P<0.05 was considered to indicate a significant difference.

[13] = test system: BV173; assay: as above; assay type: cell-based; conditions: 5 mM FA-HP-β-CyD or 15 mM HP-β-CyD, chloroquine, bafilomycin A1 or LY294002 (FIG. 8)
Experimental: as §9, §2, §10, §11, §12

## folic acid-appended hydroxypropyl-β-cyclodextrin [FA-HP-β-CyD]
[1]
  cytotoxic / antitumor activity on A549 low folate receptor-expressing cells: does not exhibit an antitumor activity
[2]
  antitumor activity in the presence of FA compared to without FA: significantly reduced
[3]
  antitumor activity in the presence of FA compared to without FA: significantly reduced
[4]
  IC50: 700 ± 55 µM
[5]; Ba/F3 P190, incubation for 72 hours, average±SD of 3 independent experiments
  IC50: 910 ± 160 µM
[5]; Ba/F3 p190, 0.05-1 mM, 72 hours (FIG. 2)
  cell proliferation: inhibited in a dose-dependent manner
[6]
  IC50: 800 ± 120 µM
[7]
  IC50: 930 ± 110 µM
[8]
  IC50: 960 ± 17 µM
[9]; K562, 0.05-1 mM, 72 hours (FIG. 2)
  cell proliferation: inhibited in a dose-dependent manner
[9]; K562, incubation for 72 hours, average±SD of 3 independent experiments
  IC50: 690 ± 190 µM
[10]; BV173, 0.05-1 mM, 72 hours (FIG. 2)
  cell proliferation: inhibited in a dose-dependent manner
[10]; BV173, incubation for 72 hours, average±SD of 3 independent experiments
  IC50: 170 ± 64 µM
[11]
  IC50: 20100 ± 4500 µM
[12]
  cell proliferation inhibitory capability on addition of an autophagy inhibitor: reduced by the addition of an autophagy inhibitor
[13]
  cell proliferation inhibitory capability on addition of an autophagy inhibitor: reduced by the addition of an autophagy inhibitor
